Patent US20080153903A1, “INHIBITORS OF PROTEIN KINASE C-DELTA FOR THE TREATMENT OF GLAUCOMA” (ALCON MANUFACTURING, LTD., priority 2006, published 2008)

Legend:
GTM-3 cells [1] = assay: Fibronectin ELISA of culture supernatants from treated GTM-3 cell monolayers (TGFβ2 mediated responses); type: cell-based, human; conditions: GTM-3 monolayers, 24 h; for TGFβ2-stimulated fibronectin levels in supernatants: FIG. 1
Description: FIG. 1A, FIG. 1B and FIG. 1C depict the effects of various amounts of PKC inhibitors on basal and stimulated (TGFβ2) fibronectin content in supernatants collected from treated monolayers of GTM-3 cells.
(§1) Cultured transformed human TM cells (“GTM-3”; see Pang I H, et al., 1994) were grown in a growth medium consisting of Dulbecco's modified Eagle's medium with Glutamax I (Gibco/Invitrogen, Grand Island, N.Y.) supplemented with 10% fetal bovine serum (Hyclone, Logan, Utah) and 50 μg/mL gentamicin (Gibco/Invitrogen). For assay, cultures were enzymatically-dissociated (TrypLE Express; Gibco/Invitrogen) then seeded into 24-well plates (Corning Costar, Acton, Mass.) and allowed to grow until monolayers reached approximately 90-95% confluence. Culture medium was then replaced with 0.25 mL serum- and antibiotic-free medium containing the appropriate test compound(s). Cells were incubated 24 h, at 5% CO2 and 37° C. Aliquots of culture supernatants were then assayed using ELISA kits for fibronectin (AssayPro, St. Charles, Mo.), PAI-I (American Diagnostica, Stamford, Conn.) and procollagen Type I C-peptide (TaKaRa Bio, Shiga, Japan).
(§2) The test compounds used were rottlerin (a specific PKC-delta inhibitor), Gö6976 (inhibits the calcium-dependent PKC isoforms alpha, beta, & mu) and bisindolylmaleimide I (a broad-spectrum PKC inhibitor).

GTM-3 cells [2] = assay: PAI-I ELISA of culture supernatants from treated GTM-3 cell monolayers (TGFβ2 mediated responses); type: cell-based, human; conditions: GTM-3 monolayers, 24 h; for TGFβ2-stimulated PAI-I levels in supernatants: FIG. 2
Description: FIG. 2A, FIG. 2B and FIG. 2C depicts the effects of PKC inhibition on basal and stimulated (TGFβ2) PAI-I content in supernatants collected from treated monolayers of GTM-3 cells.
as §1, §2

| Structure (SMILES) | TGFβ2-stimulated fibronectin levels in supernatants (GTM-3 cells [1]) | basal fibronectin content in supernatants (GTM-3 cells [1]; basal, FIG. 1B) | TGFβ2-stimulated PAI-I levels in supernatants (GTM-3 cells [2]) | basal PAI-I content in supernatants (GTM-3 cells [2]; basal, FIG. 2B) | basal fibronectin in supernatants (GTM-3 cells [1]; basal, 10 uM dose, FIG. 1A) | fibronectin levels in supernatants (GTM-3 cells [1]; basal and TGFβ2-stimulated, tested concentrations, FIG. 1C) |
| --- | --- | --- | --- | --- | --- | --- |
| Cn1c2ccccc2c2c3c(c4c5ccccc5n(CCC#N)c4c21)CNC3=O [Gö6976] | without effect | without effect | without effect | without effect | – | – |
| CC(=O)c1c(O)c(C)c(O)c(Cc2c(O)c3c(c(C(=O)/C=C/c4ccccc4)c2O)OC(C)(C)C=C3)c1O [rottlerin] | effectively reduces TGFβ2-stimulated fibronectin levels at both tested concentrations | – | dose-dependently reduces TGFβ2-stimulated PAI-I levels | – | effectively reduced basal fibronectin | – |
| CN(C)CCCn1cc(C2=C(c3c[nH]c4ccccc34)C(=O)NC2=O)c2ccccc21 [Bis I, bisindolylmaleimide I] | – | – | reduced TGFβ2-stimulated PAI-I levels only at the 100 nM dose | – | – | lack of effect |
